Drawing on the SangsterLogP compilation, this text covers logP for 23 molecules.

SMILES strings stand for the structures.

Usually logP stands for a log measure of how a compound divides between an organic and an aqueous phase. Read a low logP as lower lipophilicity. The molecule `CC(C)C(=O)Oc1c(I)cc(C#N)cc1I` came in with a logP of 4.6. As for `O=C(O)c1cc(Cl)ccc1O`, the logP came to 2.9. The figure for `CSc1ccc(O)cc1C` is 2.3. `Fc1c(F)c(F)c(S)c(F)c1F` showed a logP of 2. Consider `N#Cc1cc(I)cc(I)c1O`, for which the logP was 4.1. The figure for `CCCCN(CCCC)SN(C)C(=O)Oc1cccc2c1OC(C)(C)C2` is 5. The figure for `N#Cc1cc(I)c(O)c([N+](=O)[O-])c1` is 2.7; for `COc1c(I)cc(C#N)cc1I` it is 4.1.

Take `O=[N+]([O-])c1ccc(Cl)c(O)c1`: the logP came out at 2.4.

For `CCCCCCCC(=O)Oc1c(I)cc(C#N)cc1I`, the logP came out at 6.8. In the case of `Fc1c(F)c(F)c(C(F)(F)F)c(F)c1F` it was 3; in that of `CNC(=O)Oc1c(I)cc(C#N)cc1I`, 3.3. `COC(=O)c1cc(I)c(O)c(I)c1` gave a logP of 3.9. The figure for `CC(=O)Oc1c(I)cc(C#N)cc1I` is 3.8; for `N#Cc1cc(I)c(O)c(I)c1` it is 3.8; for `Cc1cc(O)ccc1Cl` it is 3.1. In the case of `NC(=S)c1cc(I)c(O)c(I)c1` it was 3.2; in that of `COc1ccccc1[N+](=O)[O-]`, 2; in that of `O=C(O)c1cc(I)c(O)c(I)c1`, 3.7. The figure for `COc1c(I)cc(C#N)cc1[N+](=O)[O-]` is 2.9.

Molecule `Cc1cc(I)c(O)c(I)c1` yielded a logP of 4.2. The figure for `CS(=O)(=O)c1c(F)c(F)c(F)c(F)c1F` is 1.2; for `CSc1c(C)cc(O)cc1C` it is 2.8.
